EP1203770A1 (priority 1992, dated 1994)
pIC50: −log10 of the molar value. Entries after “also recorded” stand apart in the source; their conditions may differ.

Assays:
HIV-1 protease = target: T1, HIV-1 protease (Human immunodeficiency virus type 1 group M subtype B, UniProt P04585); assay: In vitro HIV protease inhibitory assay (HIV Protease FITC Assay); type: biochemical
T1 construct: The protease (or proteinase), consisting of only 99 amino acids, is among the smallest enzymes known
Summary of the method: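 Biotin/FITC-labelled peptide substrate cleaved by HIV-1 protease for 1 h at room temperature in the dark, in 0.1 M sodium acetate pH 5.5, 1.0 M NaCl, 0.05% NP-40. Uncleaved substrate captured on avidin beads and separated by filtration; fluorescence gave % inhibition.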

HIV-1IIIB = assay: Inhibition of retroviral replication in infected human T-cell lines (MT4, H9); type: cell-based; details: e.g., MT4 and H9, infected with HIV-1IIIB
Procedure: Several compounds of the present invention, such as 3-(alpha-ethylbenzyl)-6-(alpha-ethylphenethyl)-4-hydroxy-2H-pyran-2-one, were tested in known human cell lines, such as human T-cell lines, e.g., MT4 and H9, which were infected with HIV-1IIIB, and certain of these compounds were further tested in peripheral blood mononuclear cells (PBMC), which were infected with HIV-1JRCSF (a clinical isolate).

[1] = test system: testosterone 5α-reductase; assay: In vitro testosterone 5α-reductase inhibitor assay; type: biochemical; details: at a dose of at least 0.1 mM; dog and rat prostates
Procedure: The following five (5) compounds of the present invention were tested in an in vitro testosterone 5α-reductase inhibitor assay: 3-(α-Ethylbenzyl)-6-(α-ethylphenethyl)-4-hydroxy-2H-pyran-2-one; 6-(1-Benzyl-propyl)-3-(cyclopropyl-phenyl-methyl)-4-hydroxy-pyran-2-one; 3-(α-Ethylbenzyl)-6-(α-ethylbenzyl)-4-hydroxy-2H-pyran-2-one; 3-(α-Ethylbenzyl)-6-phenethyl-4-hydroxy-2H-pyran-2-one; 4-Hydroxy-3-(1-phenylpropyl)-6-[1-[(tetrahydro-2H-pyran-3-yl)methyl]propyl]-2H-pyran-2-one. This assay is very similar to those described in the following references, except for the use of dog and rat prostates in place of human prostates: Proc. Natl. Acad. Sci. USA, Vol. 90: 5277-5281 (1993); J. Steroid. Biochem. Molec. Biol., Vol. 44, No. 2, pp. 121-131 (1993). All five (5) compounds had activity in this assay at a dose of at least 0.1 mM.

[2] = Four week oral drug safety and toxicity study in beagle dogs (prostate size and weight); type: in vivo
From the text: Daily oral doses were divided into two (2) equal doses with at least seven (7) hours between the morning and afternoon dose. Parameters evaluated included twice daily clinical observations; daily evaluation of food and water consumption; twice weekly body weights; pretest and dosage day (dd) 15 or 16 and 24 or 25 electrocardiograms; pretest and dd 23 or 24 ophthalmology examinations; pretest and dd 1, 8, 14, 21 and 28 plasma drug levels; pretest and dd 8, 14, and 28 hemograms and serum chemistries; pretest and dd 14 and 28 urinalyses; terminal body weights, gross necropsy observations and absolute and relative organ weights; and histopathologic evaluation of organs and tissues.

[3] = male dogs, group 2, 50 mg/kg/day oral, 28 days, n=3
[4] = male dogs, group 3, 100 mg/kg/day oral, 28 days, n=3
[5] = male dogs, group 4, 200 mg/kg/day oral, 28 days, n=3
[6] = male dogs, group 5, 400 mg/kg/day oral, 28 days, n=3
[7] = repeat study, 400 mg/kg/day, 4 dogs
[8] = repeat study, male dogs, group 7, 400 mg/kg/day, n=4

Q: What does the source list for `CCC(Cc1ccccc1)c1cc(O)c(C(CC)c2ccccc2)c(=O)o1` (stereo not drawn) [Example 13, 3-(α-ethylbenzyl)-6-(αethylphenethyl)-4-hydroxy-2H-Pyran-2-one]?
A: pIC50 (HIV-1 protease): 5.89; inhibition at 1 µM (HIV-1 protease; HIV-1 Dose 1.000 uM, read-out: HIV-1 Protease % Inhib): 79.5%; inhibition at 10 µM (HIV-1 protease; HIV-1 Dose 10.000 uM, read-out: HIV-1 Protease % Inhib): 92%; inhibition at 100 µM (HIV-1 protease; HIV-1 Dose 100.000 uM, read-out: HIV-1 Protease % Inhib): 72%; retroviral replication (HIV-1IIIB): found to inhibit retroviral replication; activity in testosterone 5α-reductase inhibitor assay [1]: had activity; light microscopic examination of testes, adrenals and pituitaries ([2]; high dose versus control): did not show drug-related changes; Absolute Weight (mean prostate weight) [2, 3]: 8.87 GMs; Relative Weight* (mean prostate weight) [2, 3]: 0.088 % body weight; Absolute Weight (mean prostate weight) [2, 4]: 7.55 GMs; Relative Weight* (mean prostate weight) [2, 4]: 0.074 % body weight; Absolute Weight (mean prostate weight) [2, 5]: 4.58 GMs; Relative Weight* (mean prostate weight) [2, 5]: 0.046 % body weight; Absolute Weight (mean prostate weight) [2, 6]: 4.43 GMs; Relative Weight* (mean prostate weight) [2, 6]: 0.044 % body weight; prostate size and weight ([2]; male dogs, oral 50 to 400 mg/kg/day, 28 days): dose-related decrease in prostate size and weight; also recorded: dose related decrease in prostate size and weight; dogs with marked decreases of prostate weight [2, 7]: 1/4; high dose dogs with lower absolute and relative prostate weights than controls [2, 7]: 2/4; Absolute Weight (mean prostate weight) [2, 8]: 5.65 GMs; Relative Weight* (mean prostate weight) [2, 8]: 0.055 % body weight
